For five compounds, Ki and Kd results are on record in BindingDB's records for doi:10.1074/jbc.M113.514646 (Emory University, 2014).

One may read the pKi as −log10 of the Ki, conventionally taken in molar units. Broadly, the pKd is the Kd on a negative log10 scale, so that one unit is a factor of ten.

What all share (assay): Ligand Binding Assay
What all share (details): pH 8.2; 30 °C

Experiment [1] addresses Fatty acid-binding protein 5 [M35A,L60A] (Homo sapiens, UniProt Q01469, L60A/M35A). The text has this:
(§1) In brief, both wild-type and mutant hFABP5 were expressed and purified to homogeneity as described above and dialyzed in PBS (pH 8.2). […] Blank measurements obtained from protein-only samples were subtracted at each protein concentration tested to obtain the final values. […] Blanks consisting of 1,8-ANS and fatty acid in the absence of protein were subtracted at each ligand concentration tested. The resulting fluorescence values were used to calculate a Ki value for the fatty acid of interest. Data were collected at 30 °C on a BioTek Synergy plate reader using an excitation filter of 380/20nm and an emission filter of 460/40nmand processed inGraphPad Prism 5.

Experiment [2] addresses Fatty acid-binding protein 5 (Homo sapiens, UniProt Q01469).
Text: as §1

Experiment [3] has as its target Fatty acid-binding protein 5 [K24A,R33A,K34A] (Homo sapiens, UniProt Q01469, K24A/K34A/R33A).
Text: as §1

Structures are written as SMILES. pKd, pKi: −log10 of the molar value.

Sequence of Fatty acid-binding protein 5 (Q01469 whole entry): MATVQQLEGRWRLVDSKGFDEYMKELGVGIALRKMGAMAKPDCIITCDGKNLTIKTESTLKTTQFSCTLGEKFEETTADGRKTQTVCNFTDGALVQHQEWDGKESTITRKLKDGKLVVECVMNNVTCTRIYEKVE
Sequence of Fatty acid-binding protein 5 [K24A,R33A,K34A] (Q01469 2-135 K24A/R33A/K34A limits assumed): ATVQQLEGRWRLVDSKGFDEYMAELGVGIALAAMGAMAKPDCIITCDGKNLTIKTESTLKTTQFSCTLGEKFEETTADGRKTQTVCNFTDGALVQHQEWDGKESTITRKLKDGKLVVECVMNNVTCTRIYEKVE
Sequence of Fatty acid-binding protein 5 [M35A,L60A] (Q01469 2-135 M35A/L60A limits assumed): as the sequence (Q01469 2-135 K24A/R33A/K34A limits assumed) above, with A23K, A32R, A33K, M34A, L59A counted along it

With `CCCCC/C=C\C/C=C\CCCCCCCC(=O)O`, the pKi in experiment [1] is 5.46; in experiment [2], 5.90; in experiment [3], 5.66.
On to `CCCCCC/C=C\CCCCCCCC(=O)O` [(9Z)-hexadec-9-enoic acid], for which the values for the pKi in experiment [1], in experiment [2] and in experiment [3] were 5.75, 5.87 and 5.79, respectively.
As for `O=S(=O)(O)c1cccc2cccc(Nc3ccccc3)c12` [ANS], the pKd in experiment [1] was 5.21; in experiment [2], 5.18; in experiment [3] it was 4.90.
`CCCCCCCCN[C@H]1C=C(CO)[C@@H](O)[C@H](O)[C@H]1O` [NOEV]: the pKi in experiment [1] was 6.15; in experiment [2], 5.96; in experiment [3] it was 5.91.
In the case of `CCCCC/C=C\C/C=C\C/C=C\C/C=C\CCCC(=O)O` [[1-14C]Arachidonic acid], the pKi in experiment [1] was 5.30; in experiment [2], 5.59; in experiment [3], 5.03.
